Laboratory results as given in ChEMBL document CHEMBL3994622, “Design and synthesis of new RAF kinase-inhibiting antiproliferative quinoline derivatives. Part 2: Diarylurea derivatives” (Eur J Med Chem, 2017).

Legend:
CCRF-CEM = assay: Growth inhibition of human CCRF-CEM cells assessed as cell growth at 10 uM incubated for 48 hrs by sulforhodamine B assay relative to control; type: functional; settings: read-out: Activity
MOLT-4 = assay: Growth inhibition of human MOLT4 cells assessed as cell growth at 10 uM incubated for 48 hrs by sulforhodamine B assay relative to control; type: functional; settings: MOLT-4, 48 h, read-out: Activity
RPMI-8226 = assay: Growth inhibition of human RPMI8226 cells assessed as cell growth at 10 uM incubated for 48 hrs by sulforhodamine B assay relative to control; type: functional; settings: RPMI-8226, 48 h, read-out: Activity
A549 = assay: Growth inhibition of human A549/ATCC cells assessed as cell growth at 10 uM incubated for 48 hrs by sulforhodamine B assay relative to control; type: functional; settings: A549, 48 h, read-out: Activity
EKVX = assay: Growth inhibition of human EKVX cells assessed as cell growth at 10 uM incubated for 48 hrs by sulforhodamine B assay relative to control; type: functional; settings: read-out: Activity
HOP-92 = assay: Growth inhibition of human HOP92 cells assessed as cell growth at 10 uM incubated for 48 hrs by sulforhodamine B assay relative to control; type: functional; settings: HOP-92, 48 h, read-out: Activity
COLO 205 = assay: Growth inhibition of human COLO205 cells assessed as cell growth at 10 uM incubated for 48 hrs by sulforhodamine B assay relative to control; type: functional; settings: COLO 205, 48 h, read-out: Activity
HCT-15 = assay: Growth inhibition of human HCT15 cells assessed as cell growth at 10 uM incubated for 48 hrs by sulforhodamine B assay relative to control; type: functional; settings: HCT-15, 48 h, read-out: Activity
KM12 = assay: Growth inhibition of human KM12 cells assessed as cell growth at 10 uM incubated for 48 hrs by sulforhodamine B assay relative to control; type: functional; settings: KM12, 48 h, read-out: Activity
SW-620 = assay: Growth inhibition of human SW620 cells assessed as cell growth at 10 uM incubated for 48 hrs by sulforhodamine B assay relative to control; type: functional; settings: SW-620, 48 h, read-out: Activity
SF-268 = assay: Growth inhibition of human SF268 cells assessed as cell growth at 10 uM incubated for 48 hrs by sulforhodamine B assay relative to control; type: functional; settings: SF-268, 48 h, read-out: Activity
SF-295 [1] = assay: Growth inhibition of human SF295 cells assessed as cell growth at 10 uM incubated for 48 hrs by sulforhodamine B assay relative to control; type: functional; settings: SF-295, 48 h, read-out: Activity
SNB-19 = assay: Growth inhibition of human SNB19 cells assessed as cell growth at 10 uM incubated for 48 hrs by sulforhodamine B assay relative to control; type: functional; settings: SNB-19, 48 h, read-out: Activity
SNB-75 = assay: Growth inhibition of human SNB75 cells assessed as cell growth at 10 uM incubated for 48 hrs by sulforhodamine B assay relative to control; type: functional; settings: SNB-75, 48 h, read-out: Activity
U-251 = assay: Growth inhibition of human U251 cells assessed as cell growth at 10 uM incubated for 48 hrs by sulforhodamine B assay relative to control; type: functional; settings: U-251, 48 h, read-out: Activity
LOX IMVI = assay: Growth inhibition of human LOXIMVI cells assessed as cell growth at 10 uM incubated for 48 hrs by sulforhodamine B assay relative to control; type: functional; settings: read-out: Activity
M14 = assay: Growth inhibition of human M14 cells assessed as cell growth at 10 uM incubated for 48 hrs by sulforhodamine B assay relative to control; type: functional; settings: M14, 48 h, read-out: Activity
SK-MEL-2 = assay: Growth inhibition of human SK-MEL-2 cells assessed as cell growth at 10 uM incubated for 48 hrs by sulforhodamine B assay relative to control; type: functional; settings: SK-MEL-2, 48 h, read-out: Activity
UACC-62 = assay: Growth inhibition of human UACC62 cells assessed as cell growth at 10 uM incubated for 48 hrs by sulforhodamine B assay relative to control; type: functional; settings: UACC-62, 48 h, read-out: Activity
NCI/ADR-RES = assay: Growth inhibition of human NCI/ADR-RES cells assessed as cell growth at 10 uM incubated for 48 hrs by sulforhodamine B assay relative to control; type: functional; settings: read-out: Activity
786-0 = assay: Growth inhibition of human 786-0 cells assessed as cell growth at 10 uM incubated for 48 hrs by sulforhodamine B assay relative to control; type: functional; settings: 786-0, 48 h, read-out: Activity
A498 = assay: Growth inhibition of human A498 cells assessed as cell growth at 10 uM incubated for 48 hrs by sulforhodamine B assay relative to control; type: functional; settings: A498, 48 h, read-out: Activity
RXF 393 = assay: Growth inhibition of human RXF393 cells assessed as cell growth at 10 uM incubated for 48 hrs by sulforhodamine B assay relative to control; type: functional; settings: RXF 393, 48 h, read-out: Activity
DU-145 [2] = assay: Growth inhibition of human DU145 cells assessed as cell growth at 10 uM incubated for 48 hrs by sulforhodamine B assay relative to control; type: functional; settings: DU-145, 48 h, read-out: Activity
MDA-MB-231 = assay: Growth inhibition of human MDA-MB-231 cells assessed as cell growth at 10 uM incubated for 48 hrs by sulforhodamine B assay relative to control; type: functional; settings: MDA-MB-231, 48 h, read-out: Activity
HOP-62 = assay: Growth inhibition of human HOP62 cells incubated for 48 hrs by sulforhodamine B assay; type: functional; settings: HOP-62, 48 h
NCI-H522 = assay: Growth inhibition of human NCI-H522 cells incubated for 48 hrs by sulforhodamine B assay; type: functional; settings: NCI-H522, 48 h
SF-295 [3] = assay: Growth inhibition of human SF295 cells incubated for 48 hrs by sulforhodamine B assay; type: functional; settings: SF-295, 48 h
UACC-257 = assay: Growth inhibition of human UACC257 cells incubated for 48 hrs by sulforhodamine B assay; type: functional; settings: UACC-257, 48 h
OVCAR-5 = assay: Growth inhibition of human OVCAR5 cells incubated for 48 hrs by sulforhodamine B assay; type: functional; settings: OVCAR-5, 48 h
TK-10 = assay: Growth inhibition of human TK10 cells incubated for 48 hrs by sulforhodamine B assay; type: functional; settings: TK-10, 48 h
DU-145 [4] = assay: Growth inhibition of human DU145 cells incubated for 48 hrs by sulforhodamine B assay; type: functional; settings: DU-145, 48 h
[5] = molecular target: RAF proto-oncogene serine/threonine-protein kinase (Homo sapiens, UniProt P04049); assay: Inhibition of human c-RAF using MEK1 as substrate in presence of [33P]ATP by Hotspot assay
RAF proto-oncogene serine/threonine-protein kinase, sequence (P04049 whole entry): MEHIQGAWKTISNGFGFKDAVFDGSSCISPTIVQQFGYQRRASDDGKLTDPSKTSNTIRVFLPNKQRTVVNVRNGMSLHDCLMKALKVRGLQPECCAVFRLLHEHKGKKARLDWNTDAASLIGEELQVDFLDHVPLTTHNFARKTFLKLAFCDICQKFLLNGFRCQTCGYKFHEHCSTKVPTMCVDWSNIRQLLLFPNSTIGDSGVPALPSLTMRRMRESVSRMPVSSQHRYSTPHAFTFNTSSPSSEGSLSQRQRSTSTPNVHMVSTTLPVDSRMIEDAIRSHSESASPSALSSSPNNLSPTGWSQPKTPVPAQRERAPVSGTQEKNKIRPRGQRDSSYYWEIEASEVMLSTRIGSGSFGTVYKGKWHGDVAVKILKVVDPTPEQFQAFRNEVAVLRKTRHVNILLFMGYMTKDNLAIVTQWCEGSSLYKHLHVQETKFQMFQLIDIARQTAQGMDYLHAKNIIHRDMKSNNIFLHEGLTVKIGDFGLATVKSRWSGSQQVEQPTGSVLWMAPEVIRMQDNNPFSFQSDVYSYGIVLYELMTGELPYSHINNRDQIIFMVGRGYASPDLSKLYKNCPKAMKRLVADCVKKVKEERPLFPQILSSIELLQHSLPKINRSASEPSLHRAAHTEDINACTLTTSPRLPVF

[6] = read-out: LC50 (the source's name)

Work on COc1cc2cc(Oc3ccc(NC(=O)Nc4cccc(C(F)(F)F)c4)cc3)c(C)nc2cc1OC yielded a growth at 10 µM (CCRF-CEM) of 6.41%, a growth at 10 µM (MOLT-4) of 0.81% and a growth at 10 µM (RPMI-8226) of -5.94%. It also gave a growth at 10 µM (A549) of 3.09%, a growth at 10 µM (EKVX) of 15.4% and a growth at 10 µM (HOP-92) of -29.5%. For the same compound, the growth at 10 µM (COLO 205) was -20.2%, the growth at 10 µM (HCT-15) was 15.2% and the growth at 10 µM (KM12) was -10.2%. For the same compound, the growth at 10 µM (SW-620) was 17.5%, the growth at 10 µM (SF-268) was 29.2% and the growth at 10 µM (SF-295 [1]) was -15.1%. For the same compound, the growth at 10 µM (SNB-19) was 31.4%, the growth at 10 µM (SNB-75) was 13.1% and the growth at 10 µM (U-251) was -85.7%. The growth at 10 µM (LOX IMVI) was 9.78%, the growth at 10 µM (M14) was 22.6% and the growth at 10 µM (SK-MEL-2) was -35.8%. It also gave a growth at 10 µM (UACC-62) of 14.5%, a growth at 10 µM (NCI/ADR-RES) of 6.98% and a growth at 10 µM (786-0) of 15.1%. For the same compound, the growth at 10 µM (A498) was 21.7%, the growth at 10 µM (RXF 393) was -13.1% and the growth at 10 µM (DU-145 [2]) was 26.7%. It also gave a growth at 10 µM (MDA-MB-231) of -8.32%, a GI50 (HOP-62) of 2.33 µM and a TGI (HOP-62) of 8.44 µM. The CC50 (HOP-62; [6]) was 24.1 µM, the GI50 (NCI-H522) was 1.32 µM and the TGI (NCI-H522) was 4.49 µM. It also gave a CC50 (NCI-H522; [6]) of 32.4 µM, a GI50 (SF-295 [3]) of 1.13 µM and a TGI (SF-295 [3]) of 3.59 µM. It also gave a CC50 (SF-295 [3]; [6]) of 27.2 µM, a GI50 (UACC-257) of 1.09 µM and a TGI (UACC-257) of 3.66 µM. For the same compound, the CC50 (UACC-257; [6]) was 19.9 µM, the GI50 (OVCAR-5) was 3.02 µM and the TGI (OVCAR-5) was 13 µM. It also gave a CC50 (OVCAR-5; [6]) of over 50 µM, a GI50 (TK-10) of 2.26 µM and a TGI (TK-10) of 9.93 µM. The CC50 (TK-10; [6]) was over 50 µM, the GI50 (DU-145 [4]) was 2.78 µM and the TGI (DU-145 [4]) was 15.8 µM. The CC50 (DU-145 [4]; [6]) was over 50 µM and the IC50 [5] was 0.15 µM.
